Conditions: Gas, Vibrating wire viscometry

FS(F)(F)(F)(F)F [sulfur hexafluoride]
Conditions | viscosity [mPa·s]
350 K, 7592 kPa | 0.05755
350 K, 7767.3 kPa | 0.05957
350 K, 8006.2 kPa | 0.06218
350 K, 8297.4 kPa | 0.06505
350 K, 8558.7 kPa | 0.06754
350 K, 8849.5 kPa | 0.07028
350 K, 9294 kPa | 0.07399
350 K, 9823.4 kPa | 0.07814
350 K, 10614 kPa | 0.08354
350 K, 11424 kPa | 0.08869
350 K, 12301 kPa | 0.09386
375 K, 72.56 kPa | 0.01862
375 K, 103.02 kPa | 0.01864
375 K, 132.08 kPa | 0.01864
375 K, 156.74 kPa | 0.01865
375 K, 183.32 kPa | 0.01866
375 K, 219.98 kPa | 0.01868
375 K, 258.3 kPa | 0.01869
375 K, 282.8 kPa | 0.0187
375 K, 308.36 kPa | 0.01871
375 K, 342.15 kPa | 0.01871
375 K, 371.36 kPa | 0.01872
375 K, 403.52 kPa | 0.01873
375 K, 435.36 kPa | 0.01874
375 K, 464.82 kPa | 0.01875
375 K, 499.73 kPa | 0.01876
375 K, 539.14 kPa | 0.01878
375 K, 563.93 kPa | 0.01878
375 K, 612.98 kPa | 0.0188
375 K, 661.4 kPa | 0.01882
375 K, 695.12 kPa | 0.01884
375 K, 746.7 kPa | 0.01886
375 K, 805.08 kPa | 0.01888
375 K, 855.26 kPa | 0.0189
375 K, 917.96 kPa | 0.01894
375 K, 999.57 kPa | 0.01897
375 K, 1067.6 kPa | 0.01901
375 K, 1146.8 kPa | 0.01905
375 K, 1211.3 kPa | 0.01909
375 K, 1302.5 kPa | 0.01914
375 K, 1385 kPa | 0.01919
375 K, 1460.9 kPa | 0.01924
375 K, 1534.4 kPa | 0.01928
375 K, 1588.3 kPa | 0.01932
375 K, 1723.3 kPa | 0.01941
375 K, 1809.5 kPa | 0.01948
375 K, 1885.1 kPa | 0.01954
375 K, 1966.6 kPa | 0.01959
375 K, 2043 kPa | 0.01966
375 K, 2300.6 kPa | 0.0199
375 K, 2399.3 kPa | 0.01998
375 K, 2484.3 kPa | 0.02006
375 K, 2587.3 kPa | 0.02019
375 K, 2879.2 kPa | 0.02051
375 K, 3052.5 kPa | 0.02072
375 K, 3214.1 kPa | 0.02095
375 K, 3418.4 kPa | 0.02122
375 K, 3699.7 kPa | 0.02167
375 K, 3960.7 kPa | 0.02214
375 K, 4136.6 kPa | 0.02249
375 K, 4384.3 kPa | 0.02299
375 K, 4599 kPa | 0.02348
375 K, 4821 kPa | 0.02401
375 K, 5057 kPa | 0.02467
375 K, 5280.9 kPa | 0.02535
375 K, 5535.4 kPa | 0.02617
375 K, 5778.6 kPa | 0.02706
375 K, 6000.4 kPa | 0.02791
375 K, 6326.2 kPa | 0.02939
375 K, 6677.7 kPa | 0.03112
375 K, 6887.6 kPa | 0.03224
375 K, 7092.9 kPa | 0.03343
375 K, 7293.5 kPa | 0.03466
375 K, 7524.4 kPa | 0.03612
375 K, 7762.9 kPa | 0.0377
375 K, 7973.1 kPa | 0.03919
375 K, 8202 kPa | 0.04079
375 K, 8452.7 kPa | 0.04259
375 K, 8711.3 kPa | 0.04448
375 K, 8972.9 kPa | 0.04632
375 K, 9257.7 kPa | 0.04836
375 K, 9573.7 kPa | 0.05065
375 K, 9868.9 kPa | 0.05275
375 K, 10221 kPa | 0.05519
375 K, 10547 kPa | 0.05738

Reference: the NIST ThermoML archive (doi:10.1021/je049612f)
